Assay results: patent US8383679B2, “Crystal form of calcium 3-acetylaminopropane-1-sulfonate” (Merck Patent Gesellschaft mit beschränkter Haftung, priority 2008, dated 2013)

Tests used:
[1] = Enthalpy of solution, 2225 Thermometrics Solution calorimeter; assay type: physicochemical
[2] = Suspension-conversion experiments; assay type: physicochemical; conditions: suspension of crystals
Excerpt: Suitable suspension media are solvents in which the active compound is soluble, where the active compound is employed in a weight ratio in relation to the respective solvent in the suspension in which the solubility limit of the active compound in the solvent is exceeded, so that the active compound is predominantly in the form of a solid in the suspension. Suitable suspension media are, for example, water, methanol and/or tetrahydrofuran (THE), where water is particularly preferred.

SMILES	thermodynamic stability (free Gibbs enthalpy) relative to the other crystal form ([1]; concluded from enthalpies of solution)	difference in enthalpy of solution between form II and form I ([1]; in water at 25° C.)	enthalpy of solution ([1]; in water at 25° C.)	conversion of crystal form in suspension [2]
CC(=O)NCCCS(=O)(=O)O [form II, calcium 3-acetylaminopropane-1-sulfonate]	thermodynamically more stable than form I	6.9 ± 0.4 J/g	16.2 ± 0.2 J/g	–
CC(=O)NCCCS(=O)(=O)O [form I, calcium 3-acetylaminopropane-1-sulfonate]	–	–	-23.1 ± 0.2 J/g	rearrangement to crystal form II
